Test results taken from PubChem BioAssay AID2060601 (Molecular Pharmacology Branch, DTP, NCI, 2025).
Values joined by “and” are separate entries in the source; they are usually repeats but may differ in a detail not shown here. Identical values can stand only once.

Tested on: 874868-142-R-J2-PDC complex spheroids, growth % test/control
Test: Anticancer human tumor 874868-142-R-J2-PDC patient-derived head and neck squamous carcinoma cell line growth inhibition [CLK]
Conditions: for viability, T/C: stronger effect = lower value; active = viability on the fitted dose curve at most 10% of control; inactive = the rest
Description: A high-throughput screen of multi-cell type tumor spheroids was designed to identify active combinations of […] and targeted small molecules. Complex spheroids include a stromal component modeled by human endothelial cells (HUVEC) and fibroblasts modeled by human mesenchymal stem cells (MSCs). The concentration ranges selected for each drug and investigational agent were based upon clinically achievable concentrations if the clinical Cmax of the agent was known.
Compounds. The drugs and investigational agents: cirtuvivint (SM08502; NSC835563), CC-671 (NSC850746), vemurafenib (NSC761431), tapotoclax (NSC804041), sotorasib (NSC818433), adagrasib (NSC831453), MRTX-1133 (NSC836407), BAY2416964 (NSC825713), copanlisib (NSC816437), inavolisib (NSC800729), abemaciclib (NSC768073), osimertinib (NSC779217), entinostat (NSC756642), eltanexor (KPT-8602, NSC794443), venetoclax (NSC766270), ceralasertib (NSC777638), bortezomib (NSC756655), olaparib (NSC753686), talazoparib (NSC767125), alisertib (NSC759677), peposertib (NSC802822), gemcitabine (NSC613327), 5-fluorouracil (NSC19893), SN-38 (NSC673596), oxaliplatin (NSC266046), paclitaxel (NSC125973), and doxorubicin (NSC123127), were obtained from the National Cancer Institute (NCI) Developmental Therapeutics Program Chemical Repository. The FDA-approved anticancer drug set is available from the Developmental Therapeutics Program at https://dtp.cancer.gov/organization/dscb/obtaining/available plates.htm. […] The stock solutions were prepared in dimethyl sulfoxide (DMSO, Sigma-Aldrich, St. Louis, MO, cat. D2650), except for the platinum complexes which were prepared in saline (Quality Biological, Gaithersburg, MD, cat. 114-055-101), at 800-fold the tested concentration and stored at -70 degrees C prior to their use. All drugs and investigational agents were tested over a range starting from a high concentration at or near the clinical Cmax and decreasing in half-log increments. If the clinical Cmax for an agent had not been determined, the highest concentration tested was 10 microM.
Cell Culture. All cells were maintained in an incubator at 37 degrees C and 5% CO2 with 95% humidity. The PDC lines were cultured according to standard operating procedures established by the NCI PDMR. Briefly, all PDCs were thawed and cultured in Matrigel-coated flasks prepared with a working solution of 1X Ham's F-12 nutrient mix, without supplementation (Invitrogen, Waltham, MA, cat. 11765054), 100 U/mL penicillin-streptomycin (Invitrogen, cat. 15140122), and 2.5% Matrigel (Corning Inc., Corning, NY, cat. 354248) for the first three passages. The 947758-054-R-J2-PDC line was cultured in 6B/Colon 1A media, which includes advanced DMEM/F-12 (Thermo Fisher Scientific, cat. 12634028), 10 mM HEPES (Thermo Fisher Scientific, cat. 15630080), 1X GlutaMAX supplement (Thermo Fisher Scientific, cat. 35050061), 0.1 mg/mL primocin (InvivoGen, cat. ant-pm-2), 10% defined fetal bovine serum, heat inactivated (HyClone Laboratories Inc., cat. SH30070.03HI), 1.25 mM N-Acetyl-L-cysteine (Sigma-Aldrich, cat. A9165), 10 mM nicotinamide (Sigma-Aldrich, cat. N0636), 1X B-27 supplement (Thermo Fisher Scientific, cat. 17504044), 1X N-2 supplement (Thermo Fisher Scientific, cat. 17502048), and 10 microM Y-27632 dihydrochloride (Tocris Bioscience, cat. 1254). The 876862-298-R-J1-PDC was cultured in 6E media, which includes all 6B/Colon 1A media components plus 50% L-WRN conditioned media (ATCC, cat. CRL-3276), 50 ng/mL recombinant human EGF recombinant protein (hEGF; Thermo Fisher Scientific, cat. PHG0311), 10 ng/mL recombinant human fibroblast growth factor 10 (hGFG-10; PeproTech, cat. 100-26), 1 ng/mL recombinant human fibroblast growth factor 2 (hFGF-2; PeproTech, cat. 100-18B), and 1 µM prostaglandin E2 (PGE2; Tocris, cat. 2296). The 227483-062-R1-J1-PDC line was cultured in Panc media, containing all 6E components except hFGF-2, with the addition of 500 nM SB-431542 (Selleckchem, cat. S1067) and 10 nM gastrin (Tocris, cat. 3006). […]

[1] = curve of first compound, second compound 0.0316 µM
[2] = curve of first compound, second compound 0.1 µM
[3] = curve of first compound, second compound 0.316 µM
[4] = curve of first compound, second compound 1 µM
[5] = curve of first compound, second compound 3.16 µM
[6] = curve of first compound, second compound 10 µM
[7] = second compound 0.0316 µM, first compound 0.0316 µM
[8] = second compound 0.0316 µM, first compound 0.1 µM
[9] = second compound 0.0316 µM, first compound 0.316 µM
[10] = second compound 0.0316 µM, first compound 1 µM
[11] = second compound 0.0316 µM, first compound 3.16 µM
[12] = second compound 0.0316 µM, first compound 10 µM
[13] = second compound 0.1 µM, first compound 0.0316 µM
[14] = second compound 0.1 µM, first compound 0.1 µM
[15] = second compound 0.1 µM, first compound 0.316 µM
[16] = second compound 0.1 µM, first compound 1 µM
[17] = second compound 0.1 µM, first compound 3.16 µM
[18] = second compound 0.1 µM, first compound 10 µM
[19] = second compound 0.316 µM, first compound 0.0316 µM
[20] = second compound 0.316 µM, first compound 0.1 µM
[21] = second compound 0.316 µM, first compound 0.316 µM
[22] = second compound 0.316 µM, first compound 1 µM
[23] = second compound 0.316 µM, first compound 3.16 µM
[24] = second compound 0.316 µM, first compound 10 µM
[25] = second compound 1 µM, first compound 0.0316 µM
[26] = second compound 1 µM, first compound 0.1 µM
[27] = second compound 1 µM, first compound 0.316 µM
[28] = second compound 1 µM, first compound 1 µM
[29] = second compound 1 µM, first compound 3.16 µM
[30] = second compound 1 µM, first compound 10 µM
[31] = second compound 3.16 µM, first compound 0.0316 µM
[32] = second compound 3.16 µM, first compound 0.1 µM
[33] = second compound 3.16 µM, first compound 0.316 µM
[34] = second compound 3.16 µM, first compound 1 µM
[35] = second compound 3.16 µM, first compound 3.16 µM
[36] = second compound 3.16 µM, first compound 10 µM
[37] = second compound 10 µM, first compound 0.0316 µM
[38] = second compound 10 µM, first compound 0.1 µM
[39] = second compound 10 µM, first compound 0.316 µM
[40] = second compound 10 µM, first compound 1 µM
[41] = second compound 10 µM, first compound 3.16 µM
[42] = second compound 10 µM, first compound 10 µM
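Note: spheroids exposed to the compounds for 7 days.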

CC1(C)CCC(CN2CCN(c3ccc(C(=O)NS(=O)(=O)c4ccc(NCC5CCOCC5)c([N+](=O)[O-])c4)c(Oc4cnc5[nH]ccc5c4)c3)CC2)=C(c2ccc(Cl)cc2)C1 + CNC(=O)c1ccc(Nc2nc(OC3CCCC3)c3c(-c4ccc5nc(C)oc5c4)c[nH]c3n2)c(OC)c1
< 0.0316 µM: IC50 [5] | IC50 [6]
3.2 µM: IC50 [4]
inactive: viability, T/C [7] 104% | viability, T/C [8] 103% | viability, T/C [9] 105% | viability, T/C [10] 92.7% | viability, T/C [11] 117% | viability, T/C [12] 33% | viability, T/C [13] 95.8% | viability, T/C [14] 89.4% | viability, T/C [15] 86.7% | viability, T/C [16] 84.2% | viability, T/C [17] 94.6% | viability, T/C [18] 41.1% | viability, T/C [19] 56.3% | viability, T/C [20] 67.9% | viability, T/C [21] 72.4% | viability, T/C [22] 62.5% | viability, T/C [23] 51% | viability, T/C [24] 44.2% | viability, T/C [25] 51.8% | viability, T/C [26] 51.5% | viability, T/C [27] 50.6% | viability, T/C [28] 46.1% | viability, T/C [29] 51.1% | viability, T/C [30] 34.1% | viability, T/C [31] 46.2% | viability, T/C [32] 48.4% | viability, T/C [33] 39.1% | viability, T/C [34] 41.6% | viability, T/C [35] 43.8% | viability, T/C [36] 39.8% | viability, T/C [37] 40.5% | viability, T/C [38] 51% | viability, T/C [39] 45.6% | viability, T/C [40] 47.7% | viability, T/C [41] 57.2% | viability, T/C [42] 31.8%
7.61 µM: IC50 [1]
5.32 µM: IC50 [3]
8.1 µM: IC50 [2]

O=C(c1cc(Cc2n[nH]c(=O)c3ccccc23)ccc1F)N1CCN(C(=O)C2CC2)CC1 + CNC(=O)c1ccc(Nc2nc(OC3CCCC3)c3c(-c4ccc5nc(C)oc5c4)c[nH]c3n2)c(OC)c1
> 10 µM: IC50 [1] | IC50 [2] | IC50 [3]
< 0.0316 µM: IC50 [4] | IC50 [5] | IC50 [6]
inactive: viability, T/C [7] 86.5% | viability, T/C [8] 90.7% | viability, T/C [9] 115% | viability, T/C [10] 81.4% | viability, T/C [11] 91.8% | viability, T/C [12] 75.6% | viability, T/C [13] 98.9% | viability, T/C [14] 76.5% | viability, T/C [15] 93.7% | viability, T/C [16] 87% | viability, T/C [17] 70.7% | viability, T/C [18] 73.4% | viability, T/C [19] 54% | viability, T/C [20] 54.5% | viability, T/C [21] 60.8% | viability, T/C [22] 45.9% | viability, T/C [23] 61% | viability, T/C [24] 55.6% | viability, T/C [25] 42.2% | viability, T/C [26] 40.9% | viability, T/C [27] 42.3% | viability, T/C [28] 41.1% | viability, T/C [29] 39.7% | viability, T/C [30] 41.4% | viability, T/C [31] 41.4% | viability, T/C [32] 48.8% | viability, T/C [33] 48.8% | viability, T/C [34] 41% | viability, T/C [35] 50.3% | viability, T/C [36] 46.2% | viability, T/C [37] 38.3% | viability, T/C [38] 48.4% | viability, T/C [39] 42.7% | viability, T/C [40] 41.8% | viability, T/C [41] 43.3% | viability, T/C [42] 42.2%

CC(C)CC(NC(=O)C(Cc1ccccc1)NC(=O)c1cnccn1)B(O)O (stereo not drawn)
active: viability, T/C (compound 0.03 µM) 3.18% and 1.36% | viability, T/C (compound 0.0949 µM) 0.29% and 1.25% | viability, T/C (compound 0.3 µM) 0.24% and 4.02%
20.4% and 5.73%: viability, T/C (compound 0.00949 µM)
inactive: viability, T/C (compound 0.000949 µM) 102% and 92.4% | viability, T/C (compound 0.003 µM) 112% and 103%
0.00641 µM and 0.00545 µM: IC50 (curve of compound)

CCc1c2c(nc3ccc(O)cc13)-c1cc3c(c(=O)n1C2)COC(=O)[C@]3(O)CC + CNC(=O)c1ccc(Nc2nc(OC3CCCC3)c3c(-c4ccc5nc(C)oc5c4)c[nH]c3n2)c(OC)c1
active: viability, T/C [10] 2.44% | viability, T/C [16] 2.97% | viability, T/C [22] 4.87% | viability, T/C [27] 7.96% | viability, T/C [28] 1.98% | viability, T/C [33] 12.8% | viability, T/C [34] 4.03% | viability, T/C [39] 9.57% | viability, T/C [40] 9.34%
0.0118 µM: IC50 [1]
0.00398 µM: IC50 [2]
< 0.00316 µM: IC50 [3] | IC50 [4] | IC50 [5] | IC50 [6]
inactive: viability, T/C (second compound 0.0316 µM, first compound 0.00316 µM) 63.6% | viability, T/C (second compound 0.0316 µM, first compound 0.01 µM) 44% | viability, T/C [7] 47.1% | viability, T/C [8] 28% | viability, T/C [9] 11.6% | viability, T/C (second compound 0.1 µM, first compound 0.00316 µM) 50.4% | viability, T/C (second compound 0.1 µM, first compound 0.01 µM) 47.8% | viability, T/C [13] 35.7% | viability, T/C [14] 28.2% | viability, T/C [15] 16.6% | viability, T/C (second compound 0.316 µM, first compound 0.00316 µM) 42.9% | viability, T/C (second compound 0.316 µM, first compound 0.01 µM) 37.9% | viability, T/C [19] 34.4% | viability, T/C [20] 19.6% | viability, T/C [21] 11.3% | viability, T/C (second compound 1 µM, first compound 0.00316 µM) 31% | viability, T/C (second compound 1 µM, first compound 0.01 µM) 26.8% | viability, T/C [25] 15.1% | viability, T/C [26] 11.6% | viability, T/C (second compound 3.16 µM, first compound 0.00316 µM) 24.7% | viability, T/C (second compound 3.16 µM, first compound 0.01 µM) 20.7% | viability, T/C [31] 15.3% | viability, T/C [32] 12.4% | viability, T/C (second compound 10 µM, first compound 0.00316 µM) 28.8% | viability, T/C (second compound 10 µM, first compound 0.01 µM) 21.6% | viability, T/C [37] 14% | viability, T/C [38] 11.2%
